Laboratory results as given in PubChem BioAssay AID1996.
In brackets after ≈: the same amount, converted by molar mass.

details: buffer; pH 7.4; 200.0 µM

SMILES	solubility kinetic [µg/mL]
COC(=O)c1ccc(CN2C(=O)C3CCCCC3C2=O)o1 (stereo not drawn)	> 43.7
Cn1c(=O)c2cc3ccccc3nc2n(C)c1=O	4.3 (≈ 17.8 µM)
O=C(O)c1ccc2c(c1)C(=O)N(c1cc([N+](=O)[O-])ccn1)C2=O	> 47
NS(=O)(=O)c1ccc(CCNC(=O)CN2CCN(S(=O)(=O)c3ccccc3F)CC2)cc1	> 72.7
C=CCSc1nsc(NC(=O)Nc2cccc(C(C)=O)c2)n1	1.9 (≈ 5.68 µM)
O=C(O)C1(c2ccccc2)CCC(Nc2ccccc2)C1 (stereo not drawn)	39.7 (≈ 141 µM)
O=C(CSCc1c(F)cccc1Cl)NCCSCc1ccco1	36.8 (≈ 98.4 µM)
Cc1ccccc1OCC(=O)OCC(=O)NCc1ccccc1Cl	14.1 (≈ 40.5 µM)
COc1ccc(C(=O)c2nc3ccccc3n2C(C)C)cc1	22.3 (≈ 75.8 µM)
C/C=C/C(=O)OCc1csc(CC(=O)Nc2ccccc2C)n1	> 49.6
Cc1cccc(NC(=O)NCCCCc2ccccc2)c1	0.4 (≈ 1.42 µM)
CCOC(=O)c1oc2ccccc2c1NC(=O)CCl	10.8 (≈ 38.3 µM)
CCCOc1cc(C)c(S(=O)(=O)NCc2cccs2)cc1C	9.1 (≈ 26.8 µM)
Cc1ccc(-c2cc(NC(=O)c3ccccc3)on2)cc1	< 0.3
CN1CN(c2cccc([N+](=O)[O-])c2)CN=C1N[N+](=O)[O-]	> 42
O=C(Oc1ccc(Cl)c(Cl)c1)C1=CC=CN2CCS(=O)(=O)N=C12	19.7 (≈ 52.8 µM)
COc1ccc(OC)c(NC(=O)CCn2ccnc2)c1	38.9 (≈ 141 µM)
CC(=O)c1cccc(NC(=O)c2nc(-c3ccccc3)oc2C)c1	12.1 (≈ 37.8 µM)
CCCN(CC(=O)Nc1ccccc1OC)C(=O)c1cc2ccccc2o1	25.5 (≈ 69.6 µM)

SMILES	solubility kinetic [µg/mL]
Cc1cc(=O)[nH]c(SCC(=O)N2CCCCC2)n1	> 40.1
O=S(=O)(NCC1CCCO1)c1ccc(Cl)nc1 (stereo not drawn)	> 41.5
CC(C)(C)CC(=O)NCc1cccs1	> 31.7
OC1(c2ccccn2)COc2ccccc2O1 (stereo not drawn)	28.1 (≈ 123 µM)
O=C(NS(=O)(=O)c1ccccc1)c1cccc(Br)c1	> 51
O=C(Cc1ccc(-c2ccccc2)cc1)Nc1ccccc1	1.7 (≈ 5.92 µM)
Cc1cccc(C(=O)OCC(=O)NC(=O)c2ccccc2)c1O	< 0.7
COc1ccc(-c2cc(C(=O)Nc3ccc(OC)cc3OC)no2)cc1	< 0.4
O=C(COC(=O)c1cccc(F)c1)NC1CC1	> 35.6
CCNC(=O)NC1c2ccccc2CSc2ccccc21.O (stereo not drawn)	8.8
Cc1ccc(OC(C)C(=O)Nc2cc(C)on2)cc1 (stereo not drawn)	36.2 (≈ 139 µM)
O=C(O)C(Cc1ccccc1)n1c(=S)[nH]c2ccccc2c1=O (stereo not drawn)	> 49
CC1CCN(S(=O)(=O)c2ccc([N+](=O)[O-])cc2)CC1	3.2 (≈ 11.3 µM)
CCc1c(C)nc(N2CCN(c3ccc(Cl)cc3)CC2)[nH]c1=O	1.1 (≈ 3.3 µM)
O=C1COc2ccc(C(=O)COC(=O)c3ccccc3F)cc2N1	10.1 (≈ 30.7 µM)
Cc1cc2nc3c(nc2cc1C)C(O)=C3O	27.6 (≈ 129 µM)
Cl.c1ccc2c(c1)OCC(C1=NCCN1)O2 (stereo not drawn)	> 36.1
O=C(NC(=S)N1CCCCC1CO)c1cccs1 (stereo not drawn)	> 42.7
CC(NC(=O)c1cc2cc(F)ccc2[nH]1)c1ccccc1 (stereo not drawn)	4.2 (≈ 14.9 µM)

SMILES	solubility kinetic [µg/mL]
COc1ccccc1C(=O)NCCC(=O)Nc1cccnc1	> 44.9
COc1ccccc1N1CC(C(=O)Nc2ccc(C)c(S(=O)(=O)N3CCOCC3)c2)CC1=O (stereo not drawn)	> 71
CC(NC(=O)c1cc2ccccc2o1)c1ccccc1 (stereo not drawn)	37.6 (≈ 142 µM)
COc1ccc(OC)c2c1sc(=NC(=O)C1CC1)n2C	0.9 (≈ 3.08 µM)
O=C(Nc1ccc(F)cc1)c1ccc2ncsc2c1	10.3 (≈ 37.8 µM)
O=C(NC(=O)c1ccccc1F)OCc1ccc(Cl)cc1Cl	< 0.7
COc1cc2ccccc2cc1C(=O)Nc1ccccc1C	< 0.6
CN(CCOc1ccccc1)CC(=O)Nc1cc([N+](=O)[O-])ccc1Cl	13.7 (≈ 37.7 µM)
C/C(=N\O)c1cccc(Br)c1	18.1 (≈ 84.6 µM)
CC1=C(C(=O)NC(C)c2ccccc2)C2(CCC(C)CC2)OC1=O (stereo not drawn)	8.4 (≈ 25.7 µM)
O=c1oc2ccccc2c(NCCO)c1[N+](=O)[O-]	> 37.5
CCc1nc2ccccc2n1CC(O)COCC1CC=CCC1 (stereo not drawn)	> 47.2
CN1CCN(C(=O)c2cc(Cl)cc(Cl)c2)CC1	> 41
CC(C)(C)NC(=O)CSc1ncccc1-c1nc2ccccc2[nH]1	3.3 (≈ 9.69 µM)
COC(=O)C(Cc1ccccc1)NC(=O)CCc1c[nH]c2ccccc12 (stereo not drawn)	> 52.6
CC(C)N1CC(COc2ccc(Br)cc2)OC1=O (stereo not drawn)	45.1 (≈ 144 µM)
COc1ccc(C)cc1NC(=O)CN1CCCC1c1ccc2c(c1)OCCCO2 (stereo not drawn)	13.6 (≈ 34.3 µM)
O=[N+]([O-])c1cccc(Nc2c([N+](=O)[O-])ccc3nonc23)c1	< 0.1

More lines, now with the values ahead:

solubility kinetic [µg/mL]	SMILES
17.7 (≈ 59.5 µM)	Cc1cc(C)c(C(=O)C(C)OC(=O)c2ccccn2)cc1C (stereo not drawn)
35.1 (≈ 121 µM)	CC(SCc1ccccc1)C(=O)Nc1ccccc1F (stereo not drawn)
26.3 (≈ 92.8 µM)	O=C(Oc1ccccc1N1CCOCC1)c1ccccc1
> 47.3	O=Cc1c(N2CCC3(CC2)OCCO3)nc2ccccn2c1=O
57.9 (≈ 143 µM)	CS(=O)(=O)N(CC(=O)N1CCN(Cc2ccccc2)CC1)c1cccc(F)c1
12.6 (≈ 31.6 µM)	O=C(CNS(=O)(=O)c1ccc(Cl)c(C(F)(F)F)c1)NC1CCCCC1
> 52	Cc1ccc(OCCNC(=O)CNC(=O)c2ccccc2Cl)cc1
> 39.1	O=C(CN1CCOCC1)Nc1ccc2c(c1)CCC2
8.5 (≈ 31.6 µM)	Nc1nc(C23CC4CC(CC(Cl)(C4)C2)C3)cs1
13.4 (≈ 33.1 µM)	COCc1c(C(=O)OCC(=O)Nc2ccc(OC(F)F)cc2)oc2ccccc12
> 43.3	O=C(NCC1CCCO1)C1CC(=O)N(c2ccccc2)C1 (stereo not drawn)
1 (≈ 2.77 µM)	COc1ccccc1CN1CCN(S(=O)(=O)c2ccc(C)cc2)CC1
41.5 (≈ 150 µM)	CC(=O)N(C)c1ccc(NC(=O)N2CCOCC2)cc1
< 0.4	O=C(COc1ncnc2cc(Cl)ccc12)c1ccc2c(c1)OCCO2
41.6 (≈ 144 µM)	O=C(Nc1ccncc1)c1c(F)c(F)c(F)c(F)c1F
> 55.2	O=C(NCC(c1ccco1)N1CCCCC1)c1cnc(Cl)c(Cl)c1 (stereo not drawn)
2.2 (≈ 8.08 µM)	O=C(NC1CCCC1)c1cc(-c2ccccc2O)on1
< 0.4	COc1ccc(-c2cc(C(=O)Nc3ccccc3O)c3ccccc3n2)cc1
2.9 (≈ 9.69 µM)	Cc1ccc2[nH]c(=O)c(COC(=O)C3CCCCC3)cc2c1
25.7 (≈ 98 µM)	COc1ccc(/C=C2\N=C(C)OC2=O)cc1[N+](=O)[O-]
42.3 (≈ 149 µM)	CC(C)CCNc1nc(N)c([N+](=O)[O-])c(NCCO)n1

solubility kinetic [µg/mL]	SMILES
7.1 (≈ 14.6 µM)	COc1cc(/C=C/C(=O)Nc2ccc(OC)c(S(=O)(=O)N3CCOCC3)c2)ccc1OCC#N
> 41.1	Cc1cc(/C=C(\C#N)C(=O)O)c(C)n1CC1CCCO1 (stereo not drawn)
> 54.2	CNC(=S)N1CCn2cccc2C1c1cc(OC)c(OC)c(OC)c1 (stereo not drawn)
> 56.9	Cn1cc(S(=O)(=O)Nc2ccc(OC(F)(F)F)cc2)c(=O)n(C)c1=O
19.1 (≈ 61.5 µM)	CCOc1ccc2[nH]c(SCC(=O)OC)c([N+](=O)[O-])c2c1
> 47.7	O=C(NNC(=S)NC(=O)c1ccc(F)cc1)c1ccncc1
7.6 (≈ 19.2 µM)	NC(=O)C1CCN(c2ccc(S(=O)(=O)N3CCCCC3)cc2[N+](=O)[O-])CC1
8.5 (≈ 34.4 µM)	C=CCn1c(C)cc(-c2csc(NC)n2)c1C
21.2 (≈ 72.5 µM)	O=C(COC(=O)c1ccc([N+](=O)[O-])cc1)NC1CCCC1
> 46.5	O=C(Cc1ccsc1)NCC(=O)Nc1ccc(F)c(F)c1
9.4 (≈ 23.3 µM)	Cc1onc(-c2ccccc2)c1C(=O)NCC(=O)Nc1cc(Cl)ccc1Cl
46.2 (≈ 142 µM)	Cc1ccccc1OCC(=O)Nc1ccc2c(c1)n(C)c(=O)n2C
7.9 (≈ 28.6 µM)	Cc1cc(NC(=O)COC(=O)c2ccccc2O)no1
29.9 (≈ 147 µM)	O=C(CCc1ccccc1)N1CCCC1
3.7 (≈ 9.88 µM)	O=C(Nc1cccc(O)c1)c1ccc(S(=O)(=O)N2CCCCCC2)cc1
44.5 (≈ 138 µM)	CCOC(=O)C1CCCN(c2c(NCCC(C)C)c(=O)c2=O)C1 (stereo not drawn)
> 48.7	COc1ccccc1NC(=O)CCN1C(=O)c2ccccc2C1=O
15.2 (≈ 50.6 µM)	CCOc1ccc(Nc2ccc([N+](=O)[O-])c3nonc23)cc1
14.4 (≈ 41.6 µM)	CCc1noc(C)c1C(=O)OC(C)C(=O)Nc1ccc2c(c1)OCO2 (stereo not drawn)
39.5 (≈ 125 µM)	CCN(CC)C(=O)Oc1cc(COC)nc(-c2ccccc2)n1
> 45.3	CCc1noc(C)c1C(=O)OCC(=O)NCc1ccccc1

solubility kinetic [µg/mL]	SMILES
> 63.6	CN(C)S(=O)(=O)c1ccc(Cl)c(NC(=O)CNC2(C)CCS(=O)(=O)C2)c1 (stereo not drawn)
48.5 (≈ 133 µM)	COC(=O)c1sccc1Oc1ccc(Cl)cc1N1C(=O)CCC1=O
49.1 (≈ 136 µM)	O=C(CN1CCN(c2ccccc2F)CC1)NCc1ccc(Cl)cc1
> 46.6	COc1ccccc1/C=[N+](\[O-])C1SC(=S)N(C)C1(C)C (stereo not drawn)
23 (≈ 62.4 µM)	COc1ccc(C(=O)NCC(=O)OCC(=O)N2CCc3ccccc32)cc1
2.8 (≈ 6.56 µM)	COc1cc(/C=C/C(=O)OC(C)C(=O)Nc2ccc(Cl)cn2)ccc1OC(F)F (stereo not drawn)
> 50.9	CCOc1ncccc1C(=O)N1CCN(C(=O)c2ccccc2)CC1
39.4 (≈ 142 µM)	O=C(C1CCC1)N1CCC(O)(c2cccc(F)c2)CC1
1.8 (≈ 5.02 µM)	Cc1c(Cc2ccc3c(c2)OCO3)sc(NC(=O)C2CC2)c1C(N)=O
4.6 (≈ 11 µM)	COCCn1c(SCC(=O)NC(=O)NC2CCCCC2)nc2ccccc2c1=O
> 38.4	O=c1[nH]c(=S)[nH]c2nc(-c3ccccc3)cnc12
> 43.3	CC1CCC(NC(=O)CCNC(=O)c2ccccc2)CC1 (stereo not drawn)
2.3 (≈ 7.34 µM)	COc1cccc(N/C=C/C(=O)c2ccc(OC)c(OC)c2)c1
> 49.5	O=C(NCCCN1CCCC1=O)Nc1ccc(Cl)cc1Cl
> 49.4	CC1CCCCC12NC(=O)N(CC(=O)NCc1ccccc1)C2=O (stereo not drawn)
32.4 (≈ 89.4 µM)	COc1ccccc1CNS(=O)(=O)c1ccc(Br)s1
13.2 (≈ 43.5 µM)	CCOc1ccc(/C=C/c2[nH]c(=O)[nH]c(=O)c2[N+](=O)[O-])cc1
36.9 (≈ 129 µM)	O=C(COc1ccc2ccccc2c1)NCC1CCCO1 (stereo not drawn)
22.9 (≈ 65.4 µM)	O=C(CSc1ccc(C(F)(F)F)cc1[N+](=O)[O-])N1CCOCC1
9.6 (≈ 33.5 µM)	C=CCOC(=O)C1=C(C)OC(N)=C(C#N)C1c1ccco1 (stereo not drawn)
